US10640452B2, “Branched trialkyl quaternary ammonium compounds” (Eastman Chemical Company, priority 2018, dated 2020)

What was measured:
Staphylococcus aureus = test: Antimicrobial screening, microplate dilution assay (MIC) and agar spotting (MLC); assay type: cell-based; conditions: Staphylococcus aureus (Gram pos bacteria); for MIC < 10%: lowest concentration with growth less than 10% of control; for MIC < 10% / MIC < 50%: approx. 24 h, 32° C.; for MIC < 50%: lowest concentration with growth less than 50% of control; for MLC: minimum lethal concentration, absence of growth on agar
Description: (§1) The minimum inhibitory concentration (MIC) and the minimum lethal concentration (MLC) of the chemicals were determined using a microplate dilution assay. Quats were provided as aqueous solutions, while Triclosan and Chloroxylenol were provide as powders which were first dissolved at 5 weight percent in absolute ethanol. A two-fold serial dilution series of each test chemical was prepared in Trypticase Soy Broth at 20% of the standard concentration (TSB20) and in Sabouraud Dextrose Broth at 20% of the standard concentration (SDB20) in 96-well micro-titer plates. A total of 10 dilutions were prepared and four replicate tests were performed for each dilution. […] Control solutions containing only media were included for each plate. Suspensions of Staphylococcus aureus, Escherichia coli, and Candida albicans were prepared from one-day old agar plate cultures in Butterfields Phosphate Diluent to a concentration of approximately 10^7 to 10^8 cells per milliliter. Each test well was inoculated with the diluted culture suspensions at a concentration of 10^3 to 10^4 cells per well and then incubated at 32° C. with shaking at 150 rpm for approximately 24 hours, after which the optical density of each well was determined spectrophotometrically at 600 nm. Wells containing uninoculated media without test chemical were included in each plate as negative controls and, following inoculation, as positive controls.
(§2) Selected wells at or below the MIC were tested for MLC by spotting three microliters from each replicate well onto Trypticase Soy agar for S. aureus and E. coli, or Sabouraud Dextrose agar for C. albicans.

Escherichia coli = test: as above; assay type: cell-based; conditions: Escherichia coli (Gram neg bacteria); for MIC < 10%: lowest concentration with growth less than 10% of control; for MIC < 10% / MIC < 50%: approx. 24 h, 32° C.; for MIC < 50%: lowest concentration with growth less than 50% of control; for MLC: minimum lethal concentration, absence of growth on agar
Description: as §1, §2

Candida albicans = test: as above; assay type: cell-based; conditions: Candida albicans (yeast); for MIC < 10%: lowest concentration with growth less than 10% of control; for MIC < 10% / MIC < 50%: approx. 24 h, 32° C.; for MIC < 50%: lowest concentration with growth less than 50% of control; for MLC: minimum lethal concentration, absence of growth on agar
Description: as §1, §2

[1] = Ready Biodegradability - CO2 Evolution Test OECD 301B
Description: The biodegradability of the branched aldehyde intermediates of Example 2 (4-ethyl-2-methyloctanal) and Example 25 (2,4-diethyl-2-octenal) were determined by the Ready Biodegradability—CO2 Evolution Test—Degradation of test compound according to OECD Guidelines for Testing of Chemicals CO2 Evolution Test 301B.

## CCCCCCCCCCCC[N+](C)(C)Cc1ccccc1.[Cl-] [BAC-12 linear, benzalkonium chloride, C12]
Staphylococcus aureus
  MIC < 10%: 0.0002 Weight percent
  MIC < 50%: 0.0002 Weight percent
  MLC: 0.0002 Weight percent
Escherichia coli
  MIC < 10%: 0.00078 Weight percent
  MIC < 50%: 0.00078 Weight percent
  MLC: 0.00078 Weight percent
Candida albicans
  MIC < 10%: 0.0016 Weight percent
  MIC < 50%: 0.00078 Weight percent
  MLC: 0.0016 Weight percent

## CCCCC(CC)CC(C)C=O (stereo not drawn) [Example 2, 4-ethyl-2-methyloctanal]
[1]; day 0
  Biodegradation (%): 0%
[1]; day 2
  Biodegradation (%): 0%
[1]; day 6
  Biodegradation (%): 15%
[1]; day 7
  Biodegradation (%): 21%
[1]; day 9
  Biodegradation (%): 31%
[1]; day 14
  Biodegradation (%): 47%
[1]; day 19
  Biodegradation (%): 54%
[1]; day 23
  Biodegradation (%): 56%
[1]; day 28
  Biodegradation (%): 57%
[1]; day 29 (first line)
  Biodegradation (%): 57%
[1]; day 29 (second line)
  Biodegradation (%): 61%

## CCCCC(CC)CC(C=O)CC (stereo not drawn) [Example 25, 2,4-diethyloctanal]
[1]; day 0
  Biodegradation (%): 0%
[1]; day 2
  Biodegradation (%): 0%
[1]; day 6
  Biodegradation (%): 0%
[1]; day 7
  Biodegradation (%): 9%
[1]; day 9
  Biodegradation (%): 27%
[1]; day 14
  Biodegradation (%): 48%
[1]; day 19
  Biodegradation (%): 53%
[1]; day 23
  Biodegradation (%): 53%
[1]; day 28
  Biodegradation (%): 55%
[1]; day 29 (first line)
  Biodegradation (%): 55%
[1]; day 29 (second line)
  Biodegradation (%): 57%

## Oc1cc(Cl)ccc1Oc1ccc(Cl)cc1Cl [Triclosan]
Staphylococcus aureus
  MIC < 10%: 0.00002 Weight percent
  MIC < 50%: 0.00002 Weight percent
  MLC: 0.00003 Weight percent
Escherichia coli
  MIC < 10%: 0.00010 Weight percent
  MIC < 50%: 0.00010 Weight percent
  MLC: 0.00010 Weight percent
Candida albicans
  MIC < 10%: 0.0016 Weight percent
  MIC < 50%: 0.0016 Weight percent
  MLC: >0.0016 Weight percent

## CC(=O)[O-].[Na+] [sodium acetate]
[1]; day 0
  Biodegradation (%): 0%
[1]; day 2
  Biodegradation (%): 32%
[1]; day 6
  Biodegradation (%): 52%
[1]; day 7
  Biodegradation (%): 54%
[1]; day 9
  Biodegradation (%): 60%
[1]; day 14
  Biodegradation (%): 66%
[1]; day 19
  Biodegradation (%): 69%
[1]; day 23
  Biodegradation (%): 71%
[1]; day 28
  Biodegradation (%): 72%
[1]; day 29 (first line)
  Biodegradation (%): 74%
[1]; day 29 (second line)
  Biodegradation (%): 78%
